This note sets out measurements from BindingDB's records for doi:10.1021/jm0704898 (Georgetown University Medical Center, 2007).

Assay [1] concerns the target T1, Suppressor of tumorigenicity 14 protein (Homo sapiens, UniProt Q9Y5Y6).
T1 sequence (Q9Y5Y6 whole entry): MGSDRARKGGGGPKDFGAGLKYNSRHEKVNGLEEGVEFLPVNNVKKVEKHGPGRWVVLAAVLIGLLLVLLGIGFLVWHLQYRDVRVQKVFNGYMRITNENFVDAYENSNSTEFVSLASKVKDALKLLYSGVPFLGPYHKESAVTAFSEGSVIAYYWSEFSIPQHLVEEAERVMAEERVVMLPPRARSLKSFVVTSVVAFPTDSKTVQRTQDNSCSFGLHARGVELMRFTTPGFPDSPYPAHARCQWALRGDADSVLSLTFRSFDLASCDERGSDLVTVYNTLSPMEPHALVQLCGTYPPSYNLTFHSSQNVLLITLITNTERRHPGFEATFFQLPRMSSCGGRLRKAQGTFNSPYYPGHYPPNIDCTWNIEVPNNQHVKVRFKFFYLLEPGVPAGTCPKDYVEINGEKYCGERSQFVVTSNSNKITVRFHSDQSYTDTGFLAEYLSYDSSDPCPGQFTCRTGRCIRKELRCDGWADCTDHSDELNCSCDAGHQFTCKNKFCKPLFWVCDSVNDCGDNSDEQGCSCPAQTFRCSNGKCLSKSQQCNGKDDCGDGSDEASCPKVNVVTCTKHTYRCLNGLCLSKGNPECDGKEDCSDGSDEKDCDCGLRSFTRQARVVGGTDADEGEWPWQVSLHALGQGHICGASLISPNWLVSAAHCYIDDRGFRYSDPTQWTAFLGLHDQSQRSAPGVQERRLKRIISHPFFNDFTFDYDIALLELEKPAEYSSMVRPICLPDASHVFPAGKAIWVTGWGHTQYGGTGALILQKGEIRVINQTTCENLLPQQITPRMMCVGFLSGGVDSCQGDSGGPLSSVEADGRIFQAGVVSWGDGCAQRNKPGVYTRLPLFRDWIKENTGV
Put plainly: Enzyme Inhibition Assay. As to conditions: pH 8.5; 22 °C. The protocol: (§1) The enzyme reaction was initiated by adding fluorescence peptide substrate to reaction mixture containing enzyme and test compounds. […] Hydrolysis rates were recorded in presence of six to seven different concentrations of inhibitor.

Assay [2] has as its target Prothrombin (Bos taurus, UniProt P00735). The experiment in a line: Enzyme Inhibition Assay. As to conditions: pH 8.5; 22 °C. The protocol: as §1

Molecules are shown by their SMILES.

As a reminder, the Ki is a measure of affinity in units of concentration, obtained from inhibition or displacement. A higher Ki goes with lower affinity. On to `CC[C@H](C)[C@@H]1NC(=O)[C@@H]2CCCN2C(=O)[C@@H]2CCCN2C(=O)[C@H]([C@@H](C)CC)NC(=O)[C@H](CO)NC(=O)[C@H](CCCCN)NC(=O)[C@H]([C@@H](C)O)NC(=O)[C@@H]2CSSC[C@H](NC1=O)C(=O)N[C@@H](Cc1c(F)c(F)c(F)c(F)c1F)C(=O)N1CCC[C@H]1C(=O)N[C@@H](CC(=O)O)C(=O)NCC(=O)N[C@@H](CCCN=C(N)N)C(=O)N2`, for which the inhibition constant Ki in assay [1] was 0.89 µM; in assay [2] it was 33.6 µM.
The compound `CC[C@H](C)[C@@H]1NC(=O)[C@@H]2CCCN2C(=O)[C@@H]2CCCN2C(=O)[C@H]([C@@H](C)CC)NC(=O)[C@H](CO)NC(=O)[C@H](CCCN)NC(=O)[C@H]([C@@H](C)O)NC(=O)[C@@H]2CSSC[C@H](NC1=O)C(=O)N[C@@H](Cc1ccccc1)C(=O)N1CCC[C@H]1C(=O)N[C@@H](CC(=O)O)C(=O)NCC(=O)N[C@@H](CCCN=C(N)N)C(=O)N2` [2-[(1R,4S,7S,13S,19S,22S,25S,28S,31R,34S,40S,43S,49S)-25-(3-aminopropyl)-49-benzyl-4,19-bis[(2S)-butan-2-yl]-34-(3-carbamimidamidopropyl)-28-[(1R)-1-hydroxyethyl]-22-(hydroxymethyl)-3,6,12,18,21,24,27,30,33,36,39,42,48,51-tetradecaoxo-53,54-dithia-2,5,11,17,20,23,26,29,32,35,38,41,47,50-tetradecaazapentacyclo[29.20.4.0^{7,11}.0^{13,17}.0^{43,47}]pentapentacontan-40-yl]acetic acid] registered a Ki in assay [1] of over 250 µM.
For `CC[C@H](C)[C@@H]1NC(=O)[C@@H]2CCCN2C(=O)[C@@H]2CCCN2C(=O)[C@H]([C@@H](C)CC)NC(=O)[C@H](CO)NC(=O)[C@H](CCCCN)NC(=O)[C@H]([C@@H](C)O)NC(=O)[C@@H]2CSSC[C@H](NC1=O)C(=O)N[C@@H](Cc1ccc(-c3ccccc3)cc1)C(=O)N1CCC[C@H]1C(=O)N[C@@H](CC(=O)O)C(=O)NCC(=O)N[C@@H](CCCN=C(N)N)C(=O)N2` [2-[(1R,4S,7S,13S,19S,22S,25S,28S,31R,34S,40S,43S,49S)-25-(4-aminobutyl)-4,19-bis[(2S)-butan-2-yl]-34-(3-carbamimidamidopropyl)-28-[(1R)-1-hydroxyethyl]-22-(hydroxymethyl)-3,6,12,18,21,24,27,30,33,36,39,42,48,51-tetradecaoxo-49-[(4-phenylphenyl)methyl]-53,54-dithia-2,5,11,17,20,23,26,29,32,35,38,41,47,50-tetradecaazapentacyclo[29.20.4.0^{7,11}.0^{13,17}.0^{43,47}]pentapentacontan-40-yl]acetic acid], the Ki in assay [1] came out at 1 µM; in assay [2], 25.6 µM.
In the case of `CC[C@H](C)[C@@H]1NC(=O)[C@@H]2CCCN2C(=O)[C@@H]2CCCN2C(=O)[C@H]([C@@H](C)CC)NC(=O)[C@H](CO)NC(=O)[C@H](CCCCN)NC(=O)[C@H]([C@@H](C)O)NC(=O)[C@@H]2CSSC[C@H](NC1=O)C(=O)N[C@@H](Cc1ccc3ccccc3c1)C(=O)N1CCC[C@H]1C(=O)N[C@@H](CC(=O)O)C(=O)NCC(=O)N[C@@H](CCCN=C(N)N)C(=O)N2` [2-[(1R,4S,7S,13S,19S,22S,25S,28S,31R,34S,40S,43S,49S)-25-(4-aminobutyl)-4,19-bis[(2S)-butan-2-yl]-34-(3-carbamimidamidopropyl)-28-[(1R)-1-hydroxyethyl]-22-(hydroxymethyl)-49-(naphthalen-2-ylmethyl)-3,6,12,18,21,24,27,30,33,36,39,42,48,51-tetradecaoxo-53,54-dithia-2,5,11,17,20,23,26,29,32,35,38,41,47,50-tetradecaazapentacyclo[29.20.4.0^{7,11}.0^{13,17}.0^{43,47}]pentapentacontan-40-yl]acetic acid], the values for the Ki in assay [1] and in assay [2] were 0.45 µM and 16.3 µM, respectively.
In turn, `CC[C@H](C)[C@@H]1NC(=O)[C@@H]2CCCN2C(=O)[C@@H]2CCCN2C(=O)[C@H]([C@@H](C)CC)NC(=O)[C@H](CO)NC(=O)[C@H](CCCCN)NC(=O)[C@H]([C@@H](C)O)NC(=O)[C@@H]2CSSC[C@H](NC1=O)C(=O)N[C@@H](Cc1ccccc1)C(=O)N1CCC[C@H]1C(=O)N[C@@H](CC(=O)O)C(=O)NCC(=O)N[C@@H](CCCNC(=N)N)C(=O)N2` [2-[(1R,4S,7S,13S,19S,22S,25S,28S,31R,34S,40S,43S,49S)-25-(4-aminobutyl)-49-benzyl-4,19-bis[(2S)-butan-2-yl]-34-(3-carbamimidamidopropyl)-28-[(1R)-1-hydroxyethyl]-22-(hydroxymethyl)-3,6,12,18,21,24,27,30,33,36,39,42,48,51-tetradecaoxo-53,54-dithia-2,5,11,17,20,23,26,29,32,35,38,41,47,50-tetradecaazapentacyclo[29.20.4.0^{7,11}.0^{13,17}.0^{43,47}]pentapentacontan-40-yl]acetic acid] registered a Ki in assay [1] of 0.1 µM.
In the case of `CC[C@H](C)[C@@H]1NC(=O)[C@@H]2CCCN2C(=O)[C@@H]2CCCN2C(=O)[C@H]([C@@H](C)CC)NC(=O)[C@H](CO)NC(=O)[C@H](CCCCN)NC(=O)[C@H]([C@@H](C)O)NC(=O)[C@@H]2CSCSC[C@H](NC1=O)C(=O)N[C@@H](Cc1ccccc1)C(=O)N1CCC[C@H]1C(=O)N[C@@H](CC(=O)O)C(=O)NCC(=O)N[C@@H](CCCN=C(N)N)C(=O)N2` [2-[(1R,4S,7S,13S,19S,22S,25S,28S,31R,34S,40S,43S,49S)-25-(4-aminobutyl)-49-benzyl-4,19-bis[(2S)-butan-2-yl]-34-(3-carbamimidamidopropyl)-28-[(1R)-1-hydroxyethyl]-22-(hydroxymethyl)-3,6,12,18,21,24,27,30,33,36,39,42,48,51-tetradecaoxo-53,55-dithia-2,5,11,17,20,23,26,29,32,35,38,41,47,50-tetradecaazapentacyclo[29.20.5.0^{7,11}.0^{13,17}.0^{43,47}]hexapentacontan-40-yl]acetic acid], the Ki was determined as 0.16 µM in assay [1] and 10 µM in assay [2].
As to `CC[C@H](C)[C@@H]1NC(=O)[C@@H]2CCCN2C(=O)[C@@H]2CCCN2C(=O)[C@H]([C@@H](C)CC)NC(=O)[C@H](CO)NC(=O)[C@H](CCCCN)NC(=O)[C@H]([C@@H](C)O)NC(=O)[C@@H]2CSSC[C@H](NC1=O)C(=O)N[C@@H](Cc1ccccc1)C(=O)N1CCC[C@H]1C(=O)N[C@@H](CC(=O)O)C(=O)NCC(=O)N[C@@H](CCCCN=C(N)N)C(=O)N2` [2-[(1R,4S,7S,13S,19S,22S,25S,28S,31R,34S,40S,43S,49S)-25-(4-aminobutyl)-49-benzyl-4,19-bis[(2S)-butan-2-yl]-34-(4-carbamimidamidobutyl)-28-[(1R)-1-hydroxyethyl]-22-(hydroxymethyl)-3,6,12,18,21,24,27,30,33,36,39,42,48,51-tetradecaoxo-53,54-dithia-2,5,11,17,20,23,26,29,32,35,38,41,47,50-tetradecaazapentacyclo[29.20.4.0^{7,11}.0^{13,17}.0^{43,47}]pentapentacontan-40-yl]acetic acid], the Ki was 0.857 µM in assay [1] and 7.63 µM in assay [2].
Take `CC[C@H](C)[C@@H]1NC(=O)[C@@H]2CCCN2C(=O)[C@@H]2CCCN2C(=O)[C@H]([C@@H](C)CC)NC(=O)[C@H](CO)NC(=O)[C@H](CCCCN)NC(=O)[C@H]([C@@H](C)O)NC(=O)[C@@H]2CSSC[C@H](NC1=O)C(=O)N[C@@H](Cc1ccccc1)C(=O)N1CCC[C@H]1C(=O)N[C@@H](CC(=O)O)C(=O)NCC(=O)N[C@@H](CCCNC(N)=O)C(=O)N2` [2-[(1R,4S,7S,13S,19S,22S,25S,28S,31R,34S,40S,43S,49S)-25-(4-aminobutyl)-49-benzyl-4,19-bis[(2S)-butan-2-yl]-34-[3-(carbamoylamino)propyl]-28-[(1R)-1-hydroxyethyl]-22-(hydroxymethyl)-3,6,12,18,21,24,27,30,33,36,39,42,48,51-tetradecaoxo-53,54-dithia-2,5,11,17,20,23,26,29,32,35,38,41,47,50-tetradecaazapentacyclo[29.20.4.0^{7,11}.0^{13,17}.0^{43,47}]pentapentacontan-40-yl]acetic acid]: the Ki was 22.5 µM in assay [1] and 827 µM in assay [2].
Turning to `CC[C@H](C)[C@@H]1NC(=O)[C@@H]2CCCN2C(=O)[C@@H]2CCCN2C(=O)[C@H]([C@@H](C)CC)NC(=O)[C@H](CO)NC(=O)[C@H](CCCCN)NC(=O)[C@H]([C@@H](C)O)NC(=O)[C@@H]2CCSSC[C@H](NC1=O)C(=O)N[C@@H](Cc1ccccc1)C(=O)N1CCC[C@H]1C(=O)N[C@@H](CC(=O)O)C(=O)NCC(=O)N[C@@H](CCCN=C(N)N)C(=O)N2` [2-[(1R,4S,7S,13S,19S,22S,25S,28S,31S,34S,40S,43S,49S)-25-(4-aminobutyl)-49-benzyl-4,19-bis[(2S)-butan-2-yl]-34-(3-carbamimidamidopropyl)-28-[(1R)-1-hydroxyethyl]-22-(hydroxymethyl)-3,6,12,18,21,24,27,30,33,36,39,42,48,51-tetradecaoxo-53,54-dithia-2,5,11,17,20,23,26,29,32,35,38,41,47,50-tetradecaazapentacyclo[29.20.5.0^{7,11}.0^{13,17}.0^{43,47}]hexapentacontan-40-yl]acetic acid], the Ki in assay [1] was determined as 0.38 µM.
